Eleven compounds from ChEMBL document CHEMBL1150976, “The selectivity of protein kinase inhibitors: a further update” (Biochem J, 2007) can be followed below.

Activity calls are given as the source filed them. No cut-off for these calls is given here.

The target in experiment [1] is Serine/threonine-protein kinase D1 (Homo sapiens, UniProt Q15139). Description: Inhibition of PKD1 in the presence of 50uM ATP.
In experiment [2] the target is Mitogen-activated protein kinase 14 (Homo sapiens, UniProt Q16539).
In experiment [3] the target is Proto-oncogene tyrosine-protein kinase LCK (Mus musculus, UniProt P06240). Description: Inhibition of Lck in the presence of 50uM ATP.
Proto-oncogene tyrosine-protein kinase LCK, sequence (P06240 whole entry): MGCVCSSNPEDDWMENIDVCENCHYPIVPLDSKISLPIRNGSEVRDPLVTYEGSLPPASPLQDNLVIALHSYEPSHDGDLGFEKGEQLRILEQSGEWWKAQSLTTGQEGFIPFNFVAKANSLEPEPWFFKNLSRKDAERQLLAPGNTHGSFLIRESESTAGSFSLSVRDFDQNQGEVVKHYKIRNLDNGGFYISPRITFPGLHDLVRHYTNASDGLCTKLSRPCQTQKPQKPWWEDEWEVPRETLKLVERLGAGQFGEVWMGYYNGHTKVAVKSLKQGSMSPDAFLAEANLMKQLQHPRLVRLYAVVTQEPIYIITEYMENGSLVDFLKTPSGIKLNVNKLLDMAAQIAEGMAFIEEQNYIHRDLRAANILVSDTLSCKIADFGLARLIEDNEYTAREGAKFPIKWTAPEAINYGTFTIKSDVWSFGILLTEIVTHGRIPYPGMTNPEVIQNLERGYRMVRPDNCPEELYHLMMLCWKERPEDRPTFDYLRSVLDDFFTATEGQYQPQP
Experiment [4] has as its target T1, Receptor-interacting serine/threonine-protein kinase 2 (Homo sapiens, UniProt O43353). Description: Inhibition of RIP2 in the presence of 100uM ATP.
Experiment [5] concerns the target Proto-oncogene tyrosine-protein kinase Src (Gallus gallus, UniProt P00523). Description: Inhibition of Src in the presence of 50uM ATP.
The target in experiment [6] is Mitogen-activated protein kinase 8 (Homo sapiens, UniProt P45983, M108A). Description: Inhibition of JNK-M108A in the presence of 20uM ATP.
Mitogen-activated protein kinase 8 (Homo sapiens, UniProt P45983, M108A), sequence (P45983 whole entry M108A): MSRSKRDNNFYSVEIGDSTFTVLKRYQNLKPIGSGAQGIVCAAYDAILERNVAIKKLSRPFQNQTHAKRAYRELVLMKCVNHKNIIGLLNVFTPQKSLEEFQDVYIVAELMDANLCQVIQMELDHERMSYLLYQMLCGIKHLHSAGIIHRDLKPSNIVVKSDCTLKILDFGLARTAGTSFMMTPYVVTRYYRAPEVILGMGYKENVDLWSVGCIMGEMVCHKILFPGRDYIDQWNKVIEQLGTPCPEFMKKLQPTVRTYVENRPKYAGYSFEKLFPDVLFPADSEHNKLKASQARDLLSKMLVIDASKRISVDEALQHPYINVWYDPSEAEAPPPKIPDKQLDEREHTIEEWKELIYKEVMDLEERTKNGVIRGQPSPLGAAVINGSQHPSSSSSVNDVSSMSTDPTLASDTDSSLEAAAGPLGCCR
The target of experiment [7] is Mitogen-activated protein kinase 8 (Homo sapiens, UniProt P45983, M108G). Description: Inhibition of JNK-M108G in the presence of 20uM ATP.
Mitogen-activated protein kinase 8 (Homo sapiens, UniProt P45983, M108G), sequence (P45983 whole entry M108G): as the sequence (P45983 whole entry M108A) above, with A108G counted along it
Experiment [8] has as its target Serine/threonine-protein kinase pim-1 (Homo sapiens, UniProt P11309). Description: Inhibition of PIM1 in the presence of 20uM ATP.
Experiment [9] concerns the target T2, Cyclin-G-associated kinase (Homo sapiens) (UniProt O14976).
T2 sequence (whole entry): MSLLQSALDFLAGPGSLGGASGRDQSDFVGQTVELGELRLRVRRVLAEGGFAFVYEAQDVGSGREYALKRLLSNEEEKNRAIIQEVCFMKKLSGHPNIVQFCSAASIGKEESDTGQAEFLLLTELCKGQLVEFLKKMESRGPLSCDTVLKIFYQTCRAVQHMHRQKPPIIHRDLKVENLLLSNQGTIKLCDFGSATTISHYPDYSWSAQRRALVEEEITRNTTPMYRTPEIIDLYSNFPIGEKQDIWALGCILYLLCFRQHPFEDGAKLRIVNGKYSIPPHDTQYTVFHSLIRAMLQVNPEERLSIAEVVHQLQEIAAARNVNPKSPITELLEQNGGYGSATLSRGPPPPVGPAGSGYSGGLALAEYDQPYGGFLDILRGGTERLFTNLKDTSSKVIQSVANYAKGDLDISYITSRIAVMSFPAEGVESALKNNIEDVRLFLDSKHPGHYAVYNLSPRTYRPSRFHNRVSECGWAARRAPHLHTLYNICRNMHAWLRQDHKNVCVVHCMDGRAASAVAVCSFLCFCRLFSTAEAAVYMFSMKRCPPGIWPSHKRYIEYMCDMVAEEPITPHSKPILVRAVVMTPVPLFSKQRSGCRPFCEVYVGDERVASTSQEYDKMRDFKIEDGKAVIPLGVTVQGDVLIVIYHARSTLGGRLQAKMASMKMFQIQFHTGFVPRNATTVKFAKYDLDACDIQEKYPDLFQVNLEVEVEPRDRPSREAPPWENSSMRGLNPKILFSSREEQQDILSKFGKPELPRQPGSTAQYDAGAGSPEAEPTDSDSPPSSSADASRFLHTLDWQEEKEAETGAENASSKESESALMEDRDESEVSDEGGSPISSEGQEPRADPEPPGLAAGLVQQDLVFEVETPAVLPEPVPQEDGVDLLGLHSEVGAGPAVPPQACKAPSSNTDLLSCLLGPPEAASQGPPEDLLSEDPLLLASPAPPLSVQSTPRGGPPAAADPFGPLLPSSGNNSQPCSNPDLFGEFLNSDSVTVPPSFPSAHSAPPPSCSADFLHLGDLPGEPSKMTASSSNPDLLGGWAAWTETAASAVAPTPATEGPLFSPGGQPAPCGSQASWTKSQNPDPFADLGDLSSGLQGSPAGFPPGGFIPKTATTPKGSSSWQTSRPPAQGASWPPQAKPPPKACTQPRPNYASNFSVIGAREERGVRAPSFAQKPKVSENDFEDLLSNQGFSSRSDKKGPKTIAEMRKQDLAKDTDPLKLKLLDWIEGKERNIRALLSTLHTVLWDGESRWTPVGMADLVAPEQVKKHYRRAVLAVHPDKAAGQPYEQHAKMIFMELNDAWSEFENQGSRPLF
Description: Percentage GAK activity remaining in the presence of 1uM inhibitor. The settings on record: filed as antagonist.

The target in experiment [10] is T1, Receptor-interacting serine/threonine-protein kinase 2. Description: Percentage RIP2 activity remaining in the presence of 1uM inhibitor. As to conditions: filed as antagonist.
The target of experiment [11] is Serine/threonine-protein kinase pim-2 (Homo sapiens, UniProt Q9P1W9). Description: Inhibition of PIM2 in the presence of 5uM ATP.
Serine/threonine-protein kinase pim-2, sequence (Q9P1W9 whole entry): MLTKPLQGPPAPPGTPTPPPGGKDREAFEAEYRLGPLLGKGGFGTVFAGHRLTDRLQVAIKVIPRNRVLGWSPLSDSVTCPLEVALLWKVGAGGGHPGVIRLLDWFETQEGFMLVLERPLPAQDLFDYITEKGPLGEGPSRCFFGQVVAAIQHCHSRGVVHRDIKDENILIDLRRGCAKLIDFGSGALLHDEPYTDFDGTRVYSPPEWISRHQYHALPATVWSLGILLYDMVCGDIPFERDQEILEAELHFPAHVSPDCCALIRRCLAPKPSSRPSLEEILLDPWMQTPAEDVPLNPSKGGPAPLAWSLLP
The target of experiment [12] is T3, Serine/threonine-protein kinase pim-3 (Homo sapiens, UniProt Q86V86). Description: Inhibition of PIM3 in the presence of 20uM ATP.
In experiment [13] the test system is HEK293. Description: Inhibition of PKB-S473 phosphorylation in IGF-1 treated HEK293 cells at 0.5uM. Type of experiment: functional, cell-based. The settings on record: Homo sapiens, filed as antagonist.
Experiment [14] deals with HEK293. Description: Inhibition of CHK2-T68 phosphorylation in MMS treated HEK293 cells at 0.5uM. Type of experiment: functional, cell-based. The settings on record: Homo sapiens.
The subject of experiment [15] is HEK293. Description: Inhibition of CHK1-S345 phosphorylation in MMS treated HEK293 cells at 0.5uM. Type of experiment: functional, cell-based. The settings on record: Homo sapiens.
Experiment [16] is described as follows: Inhibition of AMPK in the presence of 50uM ATP. On the set-up: species or system Rattus norvegicus.
For the next experiment, the target named is Aurora kinase B (Homo sapiens, UniProt Q96GD4). Description: Inhibition of Aurora B in the presence of 20uM ATP.
Aurora kinase B, sequence (Q96GD4 whole entry): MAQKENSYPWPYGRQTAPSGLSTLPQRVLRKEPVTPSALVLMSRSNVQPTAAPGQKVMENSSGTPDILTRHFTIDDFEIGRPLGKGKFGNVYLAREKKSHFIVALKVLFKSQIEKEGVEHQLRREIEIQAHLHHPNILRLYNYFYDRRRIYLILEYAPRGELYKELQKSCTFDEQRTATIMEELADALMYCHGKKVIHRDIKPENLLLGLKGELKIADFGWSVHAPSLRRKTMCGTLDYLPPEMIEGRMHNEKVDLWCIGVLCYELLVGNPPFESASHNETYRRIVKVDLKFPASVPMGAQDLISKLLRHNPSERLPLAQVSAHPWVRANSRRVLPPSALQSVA
The target of experiment [17] is Serine/threonine-protein kinase 3 (Homo sapiens, UniProt Q13188). Description: Inhibition of MST2 in the presence of 50uM ATP.
Experiment [18] addresses Serine/threonine-protein kinase BRSK2 (Homo sapiens, UniProt Q8IWQ3). Description: Inhibition of BRSK2 in the presence of 50uM ATP.
The next experiment deals with Aurora kinase C (Homo sapiens, UniProt Q9UQB9). Description: Inhibition of Aurora C in the presence of 5uM ATP.
The target in experiment [19] is Mitogen-activated protein kinase 8 (Homo sapiens, UniProt P45983). Description: Inhibition of JNK1 in the presence of 20uM ATP.
Mitogen-activated protein kinase 8 (Homo sapiens, UniProt P45983), sequence (P45983 whole entry): as the sequence (P45983 whole entry M108A) above, with A108M counted along it
In experiment [20] the target is T3, Serine/threonine-protein kinase pim-3. Description: Inhibition of PIM3 in the presence of 5uM ATP.
Experiment [21] deals with Dual specificity tyrosine-phosphorylation-regulated kinase 2 (Homo sapiens, UniProt Q92630). Description: Inhibition of DYRK2 in the presence of 50uM ATP.
Dual specificity tyrosine-phosphorylation-regulated kinase 2, sequence (Q92630 whole entry): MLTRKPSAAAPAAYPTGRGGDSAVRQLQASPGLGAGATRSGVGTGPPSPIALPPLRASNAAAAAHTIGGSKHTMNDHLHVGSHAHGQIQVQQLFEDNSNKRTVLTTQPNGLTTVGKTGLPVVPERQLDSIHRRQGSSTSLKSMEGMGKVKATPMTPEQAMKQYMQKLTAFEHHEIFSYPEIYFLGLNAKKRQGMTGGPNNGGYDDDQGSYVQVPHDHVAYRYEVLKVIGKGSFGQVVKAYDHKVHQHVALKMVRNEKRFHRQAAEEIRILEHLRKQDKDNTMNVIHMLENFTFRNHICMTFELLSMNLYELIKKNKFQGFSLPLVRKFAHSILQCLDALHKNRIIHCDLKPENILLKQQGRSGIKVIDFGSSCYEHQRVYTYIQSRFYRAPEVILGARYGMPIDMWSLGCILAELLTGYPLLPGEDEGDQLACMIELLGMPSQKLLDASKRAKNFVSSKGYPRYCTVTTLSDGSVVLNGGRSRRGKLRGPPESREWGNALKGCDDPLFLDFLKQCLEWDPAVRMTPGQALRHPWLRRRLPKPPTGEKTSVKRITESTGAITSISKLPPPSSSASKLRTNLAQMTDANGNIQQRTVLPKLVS
Experiment [22] deals with Glycogen synthase kinase-3 beta (Homo sapiens, UniProt P49841). Description: Inhibition of GSK3-beta in the presence of 20uM ATP.
The target in experiment [23] is Mitogen-activated protein kinase 9 (Homo sapiens, UniProt P45984). Description: Inhibition of JNK2 in the presence of 20uM ATP.
For experiment [24], the target named is Dual specificity tyrosine-phosphorylation-regulated kinase 3 (Homo sapiens, UniProt O43781). Description: Inhibition of DYRK3 in the presence of 5uM ATP.
Experiment [25] concerns the target Serine/threonine-protein kinase Sgk1 (Homo sapiens, UniProt O00141). Description: Inhibition of SGK1 in the presence of 20uM ATP.
Experiment [26] has as its target Casein kinase I isoform delta (Homo sapiens, UniProt P48730).
Experiment [27] deals with Serine/threonine-protein kinase PLK1 (Homo sapiens, UniProt P53350). Description: Inhibition of PLK1 in the presence of 5uM ATP.
In experiment [28] the target is T1, Receptor-interacting serine/threonine-protein kinase 2. Description: Percentage RIP2 activity remaining in the presence of 10uM inhibitor. As to conditions: filed as antagonist.
Experiment [29] deals with cAMP-dependent protein kinase catalytic subunit alpha (Homo sapiens, UniProt P17612). Description: Inhibition of PKA in the presence of 20uM ATP.
The target of experiment [30] is Tyrosine-protein kinase CSK (Homo sapiens, UniProt P41240). Description: Inhibition of CSK in the presence of 20uM ATP.
For experiment [31], the target named is T2, Cyclin-G-associated kinase (Homo sapiens). Description: Percentage GAK activity remaining in the presence of 10uM inhibitor. The settings on record: filed as antagonist.
For experiment [32], the target named is T3, Serine/threonine-protein kinase pim-3. Description: Inhibition of PIM3 in the presence of 100uM ATP.
Another experiment has as its target Casein kinase II (Homo sapiens, UniProt P19784+P67870+P68400). Description: Inhibition of CK2 in the presence of 5uM ATP. It counts as protein-complex assay.
Experiment [33] deals with Myosin light chain kinase, smooth muscle (Homo sapiens, UniProt Q15746). Description: Inhibition of SmMLCK in the presence of 50uM ATP.

T1 sequence (O43353 whole entry): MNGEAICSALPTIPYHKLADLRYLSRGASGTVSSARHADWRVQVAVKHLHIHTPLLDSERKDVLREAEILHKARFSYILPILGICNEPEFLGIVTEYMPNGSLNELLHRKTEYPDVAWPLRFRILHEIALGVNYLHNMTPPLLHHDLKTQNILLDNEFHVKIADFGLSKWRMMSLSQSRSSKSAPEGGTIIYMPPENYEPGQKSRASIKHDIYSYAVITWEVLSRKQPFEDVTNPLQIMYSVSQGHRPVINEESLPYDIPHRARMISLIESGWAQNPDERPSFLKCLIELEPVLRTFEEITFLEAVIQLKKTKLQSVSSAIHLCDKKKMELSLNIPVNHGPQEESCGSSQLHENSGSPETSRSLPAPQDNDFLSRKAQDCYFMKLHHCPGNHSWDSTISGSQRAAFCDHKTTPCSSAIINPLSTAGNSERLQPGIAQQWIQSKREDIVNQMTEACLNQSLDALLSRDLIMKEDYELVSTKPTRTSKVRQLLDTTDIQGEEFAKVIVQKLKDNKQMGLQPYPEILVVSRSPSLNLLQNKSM
Serine/threonine-protein kinase D1, sequence (Q15139 whole entry): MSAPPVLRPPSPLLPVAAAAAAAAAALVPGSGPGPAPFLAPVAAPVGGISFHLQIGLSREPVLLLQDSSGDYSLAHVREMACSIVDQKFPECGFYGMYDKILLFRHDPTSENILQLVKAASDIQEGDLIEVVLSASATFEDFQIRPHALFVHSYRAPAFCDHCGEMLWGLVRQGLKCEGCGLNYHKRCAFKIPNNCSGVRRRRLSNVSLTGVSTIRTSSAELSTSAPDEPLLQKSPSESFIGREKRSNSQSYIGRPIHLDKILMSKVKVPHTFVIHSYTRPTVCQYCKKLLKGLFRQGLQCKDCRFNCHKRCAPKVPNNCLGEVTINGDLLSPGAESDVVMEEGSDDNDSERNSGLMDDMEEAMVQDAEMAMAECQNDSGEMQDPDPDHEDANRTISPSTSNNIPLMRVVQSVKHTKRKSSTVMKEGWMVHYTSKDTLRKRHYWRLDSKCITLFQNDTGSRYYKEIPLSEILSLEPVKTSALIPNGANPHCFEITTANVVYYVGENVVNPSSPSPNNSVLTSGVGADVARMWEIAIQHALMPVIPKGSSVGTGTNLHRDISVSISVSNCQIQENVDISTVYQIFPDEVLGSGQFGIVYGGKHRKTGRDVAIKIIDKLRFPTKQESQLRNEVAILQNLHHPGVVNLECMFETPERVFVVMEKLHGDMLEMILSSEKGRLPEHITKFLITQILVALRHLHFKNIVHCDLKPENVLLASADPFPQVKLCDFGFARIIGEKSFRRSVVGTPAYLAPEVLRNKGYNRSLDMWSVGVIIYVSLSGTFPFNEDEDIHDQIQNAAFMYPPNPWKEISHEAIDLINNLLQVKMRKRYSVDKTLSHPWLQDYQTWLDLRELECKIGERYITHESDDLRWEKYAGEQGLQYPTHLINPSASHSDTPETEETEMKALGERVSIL
Serine/threonine-protein kinase pim-1, sequence (P11309 whole entry): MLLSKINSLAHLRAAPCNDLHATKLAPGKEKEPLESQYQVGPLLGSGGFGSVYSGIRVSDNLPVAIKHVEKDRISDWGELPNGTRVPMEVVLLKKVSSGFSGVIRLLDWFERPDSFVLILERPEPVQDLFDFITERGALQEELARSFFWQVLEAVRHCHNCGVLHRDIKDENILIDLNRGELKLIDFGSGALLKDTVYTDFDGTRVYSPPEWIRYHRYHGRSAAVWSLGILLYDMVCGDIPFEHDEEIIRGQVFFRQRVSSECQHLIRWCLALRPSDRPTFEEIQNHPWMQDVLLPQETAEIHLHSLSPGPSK
Casein kinase I isoform delta, sequence (P48730 whole entry, canonical isoform): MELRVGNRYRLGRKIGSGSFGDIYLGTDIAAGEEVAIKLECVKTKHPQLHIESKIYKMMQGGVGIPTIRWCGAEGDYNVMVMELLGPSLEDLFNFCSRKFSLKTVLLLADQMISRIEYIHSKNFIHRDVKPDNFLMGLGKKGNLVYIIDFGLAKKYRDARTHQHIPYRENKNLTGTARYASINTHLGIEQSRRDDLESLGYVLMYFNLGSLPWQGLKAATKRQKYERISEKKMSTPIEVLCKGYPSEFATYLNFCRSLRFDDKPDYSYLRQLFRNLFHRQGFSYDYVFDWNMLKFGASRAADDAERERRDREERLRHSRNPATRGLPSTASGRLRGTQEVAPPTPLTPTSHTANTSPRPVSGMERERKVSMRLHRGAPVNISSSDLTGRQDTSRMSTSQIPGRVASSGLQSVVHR

Regarding `NC(=O)c1ccc(-c2nc(-c3ccc4c(c3)OCCO4)c(-c3ccccn3)[nH]2)cc1`, the 50% inhibitory concentration (IC50) (in general, the midpoint of a concentration-inhibition curve) in [1] was 9100 nM (antagonist); in experiment [2], 5800 nM (antagonist).

In the case of `CC(C)(C)n1nc(-c2cccc3ccccc23)c2c(N)ncnc21`, the IC50 in experiment [3] is given as 660 nM (antagonist); in [4] it was 120 nM (antagonist); in [5], 340 nM (antagonist); in experiment [6], 270 nM (antagonist); in experiment [7], 620 nM (antagonist).

Take `O=C1Nc2ccc(I)cc2C1=Cc1cc(Br)c(O)c(Br)c1` [GW305074X]: the IC50 in experiment [8] is listed as 170 nM (antagonist); in experiment [11], 70 nM (antagonist); in experiment [12], 100 nM (antagonist). The Activity in experiment [9] is 32%; in experiment [10], 35%.

Regarding `Oc1cccc(-c2nc(N3CCOCC3)c3oc4ncccc4c3n2)c1`, the Activity entry with HEK293 [13] is “Antagonist”. Further, the outcome in the experiment with HEK293 [14] and in the experiment on HEK293 [15] was inactive.

Regarding `CN(C)S(=O)(=O)c1ccc2c(c1)/C(=C/c1cc3c([nH]1)CCCC3)C(=O)N2`, the IC50 in experiment [3] is 150 nM (antagonist); in experiment [5] it was 100 nM (antagonist); in [16], 110 nM (antagonist); at Aurora kinase B it was 19 nM (antagonist); in experiment [17] it was 110 nM (antagonist); in experiment [18], 100 nM (antagonist). At Aurora kinase C, the IC50 is reported as 17 nM (antagonist).

With `N#C/C(=C1/Nc2ccccc2S1)c1ccnc(NCCc2cccnc2)n1`, the IC50 in experiment [19] is 2600 nM (antagonist); in experiment [20], 30 nM (antagonist); in experiment [8] it was 80 nM (antagonist); in experiment [21], 300 nM (antagonist); in experiment [22], 40 nM (antagonist); in experiment [23], 5000 nM (antagonist).

In the case of `Nc1ncnc2[nH]nc(Nc3ccc(F)cc3)c12`, the half-inhibitory concentration (IC50) in [24] is 3200 nM (antagonist); in [3], 2500 nM (antagonist); on Aurora kinase B, 2500 nM (antagonist); in experiment [25] it was 2700 nM (antagonist); in experiment [26], 510 nM (antagonist).

Turning to `O=c1cc(N2CCOCC2)oc2c(-c3ccccc3)cccc12` [LY-294002], the IC50 in experiment [12] is 1400 nM (antagonist); in [27] it was 2000 nM (antagonist).

For `CC(C)(C)n1nc(Cc2cccc3ccccc23)c2c(N)ncnc21`, the half-maximal inhibitory concentration (IC50) is reported as 250 nM (antagonist) in experiment [1]; 460 nM (antagonist) in [3]; 130 nM (antagonist) in experiment [4]; 250 nM (antagonist) in experiment [6]; 140 nM (antagonist) in [7]; 500 nM (antagonist) in experiment [29]. For the same compound, the half-maximal inhibitory concentration (IC50) in [30] is reported as 510 nM (antagonist). For the same compound, the Activity in experiment [28] is 5%; in experiment [9], 43%; in [10], 14%; in [31], 6%.

In the case of `O=C(O)c1ccc2c3c1cccc3c(=O)n1c3ccccc3nc21`, the IC50 is on record as 83 nM (antagonist) in experiment [32]; 160 nM (antagonist) in experiment [16]; 190 nM (antagonist) at Casein kinase II; 110 nM (antagonist) in [11]; 950 nM (antagonist) in [21].

Regarding `COC[C@H]1OC(=O)c2coc3c2[C@@]1(C)C1=C(C3=O)[C@@H]2CCC(=O)[C@@]2(C)C[C@H]1OC(C)=O` [WORTMANNIN], in experiment [33], the IC50 was 5000 nM (antagonist).
